In US12630529B2, “GCN2 modulator compounds” (ALESTA THERAPEUTICS BV, priority 2020, dated 2026):

What was measured:
HT29 cells [1] = assay: Growth of tumor spheroids; assay type: cell-based; settings: 64 μM arginine, up to 120 hours, vs untreated spheroids
Experimental: The growth of tumor spheroids was evaluated following treatment of cells with Compound 1, Compound 2 and Compound 108. Briefly, HT29 cells were seeded at 5,000 cells/well in ultra-low attachment round bottom 96-well plates, in 100 μL SILAC DMEM Flex media without phenol red, supplemented with 10% fetal bovine serum (FBS), 1 g/L glucose, 2 mM glutamine, 220 μM lysine, and 64 μM arginine. The plates were centrifuged for 10 minutes at 125×g and put in a humidified incubator at 37° C. for 3 days before the onset of the experiment to allow spheroids to form.
Three days after seeding, 10 μM Compound 1, 10 μM Compound 2, 10 μM Compound 108 or 10 μM vehicle control (0.1% DMSO), were added together with 100 nM fluorescent apoptosis stain (e.g., YO-PRO™-1 Iodide; Thermo Fisher) to detect apoptotic cells and Nuclear-ID Red DNA Stain (1:100,000; ENZO Life Sciences) to detect live cells. Plates were placed in a live-cell imaging and analysis platform (e.g., IncuCyte ZOOM®; Essenbio) set up in a humidified incubator at 37° C. and scanned every 4 hours for up 120 hours, at 10× magnification, to determine relative spheroid size and cell death. Experiments were performed in quadruplicate and analyzed using live-cell imaging and analysis software (e.g., IncuCyte ZOOM® 2018A software; Essenbio).

HT29 cells [2] = assay: Proliferation and apoptosis of colorectal cancer cells (live-cell imaging); assay type: cell-based; settings: 10 μM, 64 μM arginine, up to 96 hours, vs untreated cells; for rate of apoptotic cell death: YO-PRO-1 uptake
Experimental: Proliferation and apoptosis of HT29 cells was determined in the presence of Compound 1 and Compound 2. Briefly, cells were seeded in 96-well flat bottom plates at 4,000 cells per well in 100 μL SILAC DMEM Flex media without phenol red, supplemented with 10% fetal bovine serum (FBS), 1 g/L glucose, 2 mM glutamine, 220 μM lysine, containing a physiological concentration of arginine (64 μM). After 24 hours, cells were treated with 10 μM vehicle control (Control; 0.1% DMSO), 10 μM Compound 1, or 10 μM Compound 2, together with 100 nM of fluorescent apoptosis stain (YO-PRO™-1 Iodide; Thermo Fisher) to detect apoptotic cells. Cells were placed in a live-cell imaging and analysis platform (IncuCyte ZOOM®; Essenbio) set up in a humidified incubator at 37° C. and the plates were scanned every 4 hours for up 96 hours, at 10× magnification to determine cell confluence and cell death. Experiments were performed in duplicate with 3 images collected per well and analyzed using live-cell imaging and analysis software (e.g., IncuCyte ZOOM® 2018A software; Essenbio).

| SMILES | spheroid size and viability (HT29 cells [1]) | rate of apoptotic cell death (HT29 cells [2]) | cell density / confluence (HT29 cells [2]) |
| --- | --- | --- | --- |
| COc1ncc(Cl)cc1S(=O)(=O)Nc1ccc(F)c(-c2ccc3nc(N)ncc3c2)c1F [Compound 1] | relative reduction in spheroid size and viability in a dose-dependent manner | increased rate of apoptotic cell death | grew less dense |
| Nc1ncc2cc(-c3c(F)ccc(NS(=O)(=O)c4cc(Cl)ccc4Cl)c3F)ccc2n1 [Compound 2] | relative reduction in spheroid size and viability in a dose-dependent manner | increased rate of apoptotic cell death | grew less dense |
